Patent US8143244B2, “Cyclopropyl fused indolobenzazepine HCV NS5B inhibitors” (Bristol-Myers Squibb Company, priority 2009, dated 2012)
Where two headings read alike, the source gives them in different places.

How the values were obtained:
[1] = target: T1, HCV NS5B (Hepatitis C virus genotype 1b, UniProt Q9WMX2); test: HCV NS5B RdRp enzyme assay; format: biochemical; details: HCV NS5B RdRp genotype 1b
T1 construct: The protein was expressed with an 18 amino acid C-terminal truncation to enhance the solubility; made in house; host or cells: E. coli BL21(DE3)
Procedure, shortened: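 Modified format: 14 nM C-terminally truncated (Δ18) genotype 1b NS5B added to compound before template (0.2 nM polyA), 3H-UTP (0.6 μCi, 0.29 μM) and oligo-dT12 primer (20 nM) precaptured on SPA beads; 4 h, 30° C. Standard format: 28 nM enzyme, 6 nM template, 180 nM primer, 60 min, 30° C, SPA read-out. IC50 from seven concentrations, 2% DMSO.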

[2] = tested on: HCV replicon; test: HCV Replicon Luciferase Reporter Assay (LE Assay); format: cell-based, HCV genotype 1b
Procedure: The HCV replicon luciferase assay was developed to monitor the inhibitory effects of compounds described in the disclosure on HCV viral replication. Utilization of a replicon luciferase reporter assay was first described by Krieger et al (Krieger N, Lohmann V, and Bartenschlager R, J. Virol. 75(10):4614-4624 (2001)). HUH-7 cells, constitutively expressing the HCV replicon, were grown in Dulbeccors Modified Eagle Media (DMEM) (Gibco-BRL) containing 10% Fetal calf serum (FCS) (Sigma) and 1 mg/ml G418 (Gibco-BRL). Compounds were serially diluted 3 folds in DMSO for a twenty-point titration and subsequently transferred to sterile 384-well tissue-culture treated plates (Coming cat #3571). The plates were then seeded with 50 μl of cells at a density of 3.0×10^3 cells/well in DMEM containing 4% FCS (final DMSO concentration at 0.5%). After 3 days incubation at 37° C., cells were analyzed for Renilla Luciferase activity using the EnduRen as substrate (Promega cat #E6485). The EnduRen substrate was diluted in DMEM and then added to the plates to a final concentration of 7.5 μM. The plates were incubated for 2 hrs at 37° C. and then read immediately for 30 seconds with Viewlux Imager (PerkinElmer) using a luminescence program. To assess cytotoxicity of compounds, CC50 values were generated by multiplexing the EnduRen-containing plates with Cell Titer-Blue (Promega, cat #G8082). 3 μl of Cell-Titer Blue was added to each well and incubated for 8 hrs at 37° C. The fluorescence signal from each well was read, with an excitation wavelength at 525/10 nm and an emission wavelength of 598/10 nm, using the Viewlux Imager.

[3] = Hepatitis C virus, genotype 1b, Huh-7, read-out: LE NeoLuc EC50, Table 1, HUH-7 cells, genotype 1b replicon
[4] = Hepatitis C virus, Huh-7, Table 2, HUH-7 cells, read-out: LE NeoLuc EC50
[5] = Table 2, HUH-7 cells, read-out: LE NeoLuc EC50

T1 sequence (Q9WMX2 2420-2992): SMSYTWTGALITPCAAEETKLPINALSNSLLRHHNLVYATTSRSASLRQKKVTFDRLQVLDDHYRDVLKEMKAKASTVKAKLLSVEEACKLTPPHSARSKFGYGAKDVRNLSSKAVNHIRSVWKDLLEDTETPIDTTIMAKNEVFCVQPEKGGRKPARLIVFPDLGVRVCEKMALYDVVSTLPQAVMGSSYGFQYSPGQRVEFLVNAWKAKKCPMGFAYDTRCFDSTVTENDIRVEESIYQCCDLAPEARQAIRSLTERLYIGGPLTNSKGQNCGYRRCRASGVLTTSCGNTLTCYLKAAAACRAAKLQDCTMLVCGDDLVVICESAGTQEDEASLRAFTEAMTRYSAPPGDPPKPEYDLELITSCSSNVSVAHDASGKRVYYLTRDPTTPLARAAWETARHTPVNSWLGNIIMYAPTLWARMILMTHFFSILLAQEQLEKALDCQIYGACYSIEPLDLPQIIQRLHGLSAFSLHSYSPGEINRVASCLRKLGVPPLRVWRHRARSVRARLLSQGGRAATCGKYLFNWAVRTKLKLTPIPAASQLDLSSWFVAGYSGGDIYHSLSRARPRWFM

## COc1ccc2c(c1)[C@@H]1C[C@]1(C(=O)N1CC34CNCC3(CN(C)C4)C1)Cn1c-2c(C2CCCCC2)c2ccc(C(=O)NS(=O)(=O)C(C)C)cc21 (some centres unmarked)
[1]; Table 1
  IC50: 1.9 to 500 nM
[2]; [3]
  EC50: 500 to 1000 nM

## COc1ccc2c(c1)C1CC1(C(=O)N1CC34CNCC3(CN(C)C4)C1)Cn1c-2c(C2CCCCC2)c2ccc(C(=O)NS(=O)(=O)N(C)C)cc21 (centres unmarked)
[1]; Table 1
  IC50: 1.9 to 500 nM
[2]; [3]
  EC50: 1.9 to 500 nM

## COc1ccc2c(c1)C=C(C(=O)N1CC34CNCC3(COC4)C1)Cn1c-2c(C2CCCCC2)c2ccc(C(=O)NS(=O)(=O)N(C)C)cc21 (centres unmarked)
[1]; Table 1
  IC50: 1.9 to 500 nM
[2]; [3]
  EC50: 1.9 to 500 nM

## COc1ccc2c(c1)C=C(C(=O)N1CC34CNCC3(COC4)C1)Cn1c-2c(C2CCCCC2)c2ccc(C(=O)NS(=O)(=O)C3CC3)cc21 (centres unmarked)
[1]; Table 1
  IC50: 1.9 to 500 nM
[2]; [3]
  EC50: 1.9 to 500 nM

## COc1ccc2c(c1)[C@@H]1C[C@]1(C(=O)N1CC34COCC3(CN(C)C4)C1)Cn1c-2c(C2CCCCC2)c2ccc(C(=O)NS(=O)(=O)C(C)C)cc21 (some centres unmarked)
[1]; Table 1
  IC50: 1.9 to 500 nM
[2]; [3]
  EC50: 1.9 to 500 nM

## COc1ccc2c(c1)[C@@H]1C[C@]1(C(=O)N1CC34COCC3(C1)CN(C1CC1)C4)Cn1c-2c(C2CCCCC2)c2ccc(C(=O)NS(=O)(=O)C(C)C)cc21 (some centres unmarked)
[1]; Table 1
  IC50: 2.5 to 500 nM
[2]; [3]
  EC50: 1.9 to 500 nM

## COc1ccc2c(c1)CC(C(=O)N1CC34CNCC3(COC4)C1)Cn1c-2c(C2CCCCC2)c2ccc(C(=O)NS(=O)(=O)C3CC3)cc21 (centres unmarked)
[1]; Table 1
  IC50: 1.9 to 500 nM
[2]; [3]
  EC50: 500 to 5000 nM

## COc1ccc2c(c1)C1CC1(C(=O)N1CC34COCC3(CN(C)C4)C1)Cn1c-2c(C2CCCCC2)c2ccc(C(=O)NS(=O)(=O)N(C)C)cc21 (centres unmarked) [drawing 106]
[1]; Table 2
  IC50: 8.79 nM
[2]; [4]
  EC50: 40 nM

## COc1ccc2c(c1)C1CC1(C(=O)N1CC34CNCC3(COC4)C1)Cn1c-2c(C2CCCCC2)c2ccc(C(=O)NS(=O)(=O)N(C)C)cc21 (centres unmarked)
[1]; Table 1
  IC50: 1.9 to 500 nM
[2]; [3]
  EC50: 1.9 to 500 nM

## COc1ccc2c(c1)[C@@H]1C[C@]1(C(=O)N1CC34CN(C)CC3(CN(C)C4)C1)Cn1c-2c(C2CCCCC2)c2ccc(C(=O)NS(=O)(=O)C(C)C)cc21 (some centres unmarked)
[1]; Table 1
  IC50: 1.9 to 500 nM
[2]; [3]
  EC50: 1.9 to 500 nM

## COc1ccc2c(c1)[C@@H]1C[C@]1(C(=O)N1CC34COCC3(C1)N(C(C)=O)C4)Cn1c-2c(C2CCCCC2)c2ccc(C(=O)NS(=O)(=O)N(C)C)cc21 (some centres unmarked)
[1]; Table 1
  IC50: 1.9 to 500 nM
[2]; [3]
  EC50: 1.9 to 500 nM

## COc1ccc2c(c1)C=C(C(=O)N1CC34CN(C)CC3(CN(C)C4)C1)Cn1c-2c(C2CCCCC2)c2ccc(C(=O)NS(=O)(=O)N(C)C)cc21 (centres unmarked)
[1]; Table 1
  IC50: 1.9 to 500 nM
[2]; [3]
  EC50: 1.9 to 500 nM

## COc1ccc2c(c1)C1CC1(C(=O)N1CC34CN(C)CC3(CN(C)C4)C1)Cn1c-2c(C2CCCCC2)c2ccc(C(=O)NS(=O)(=O)N(C)C)cc21 (centres unmarked)
[1]; Table 1
  IC50: 1.9 to 500 nM
[2]; [3]
  EC50: 1.9 to 500 nM

## COc1ccc2c(c1)CC(C(=O)N1CC34CN(C)CC3(CN(C)C4)C1)Cn1c-2c(C2CCCCC2)c2ccc(C(=O)NS(=O)(=O)N(C)C)cc21 (centres unmarked)
[1]; Table 1
  IC50: 1.9 to 500 nM
[2]; [3]
  EC50: 1.9 to 500 nM

## C=C(C)S(=O)(=O)NC(=O)c1ccc2c(C3CCCCC3)c3n(c2c1)C[C@@]1(C(=O)N2CC45COCC4(CN(C)C5)C2)C[C@H]1c1cc(OC)ccc1-3 (some centres unmarked)
[1]; Table 1
  IC50: 1.9 to 500 nM
[2]; [3]
  EC50: 1.9 to 500 nM

## COc1ccc2c(c1)[C@@H]1C[C@]1(C(=O)N1CC34COCC3(C1)N(C(C)=O)C4)Cn1c-2c(C2CCCCC2)c2ccc(C(=O)NS(=O)(=O)C(C)C)cc21 (some centres unmarked) [drawing 109]
[1]; Table 2
  IC50: 3.1 nM
[2]; [5]
  EC50: 90 nM

## COc1ccc2c(c1)CC(C(=O)N1CC34COCC3(CN(C)C4)C1)Cn1c-2c(C2CCCCC2)c2ccc(C(=O)NS(=O)(=O)C3CC3)cc21 (centres unmarked)
[1]; Table 1
  IC50: 1.9 to 500 nM
[2]; [3]
  EC50: 1.9 to 500 nM

## COc1ccc2c(c1)C=C(C(=O)N1CC34COCC3(C1)N(C(C)=O)C4)Cn1c-2c(C2CCCCC2)c2ccc(C(=O)NS(=O)(=O)N(C)C)cc21 (centres unmarked)
[1]; Table 1
  IC50: 1.9 to 500 nM
[2]; [3]
  EC50: 1.9 to 500 nM

## COc1ccc2c(c1)C1CC1(C(=O)N1CC34COCC3(CN(C)C4)C1)Cn1c-2c(C2CCCCC2)c2ccc(C(=O)NS(=O)(=O)N(C)C)cc21 (centres unmarked) [drawing 61]
[1]; Table 1
  IC50: 1.9 to 500 nM
[2]; [3]
  EC50: 1.9 to 500 nM

## COc1ccc2c(c1)C=C(C(=O)N1CC34COCC3(CN(C)C4)C1)Cn1c-2c(C2CCCCC2)c2ccc(C(=O)NS(=O)(=O)C3CC3)cc21 (centres unmarked)
[1]; Table 1
  IC50: 1.9 to 500 nM
[2]; [3]
  EC50: 1.9 to 500 nM

## COc1ccc2c(c1)C1CC1(C(=O)N1CC34COCC3(CN(C(C)=O)C4)C1)Cn1c-2c(C2CCCCC2)c2ccc(C(=O)NS(=O)(=O)CC(C)C)cc21 (centres unmarked)
[1]; Table 1
  IC50: 1.9 to 500 nM
[2]; [3]
  EC50: 500 to 1000 nM

## COc1ccc2c(c1)C1CC1(C(=O)N1CC34CNCC3(CN(C)C4)C1)Cn1c-2c(C2CCCCC2)c2ccc(C(=O)NS(=O)(=O)C3CC3)cc21 (centres unmarked)
[1]; Table 2
  IC50: 7.8 nM
[2]; [4]
  EC50: 2100 nM

## COc1ccc2c(c1)[C@@H]1C[C@]1(C(=O)N1CC34COCC3(C1)N(C(C)=O)C4)Cn1c-2c(C2CCCCC2)c2ccc(C(=O)NS(=O)(=O)C(C)C)cc21 (some centres unmarked) [drawing 110]
[1]; Table 2
  IC50: 2.4 nM
[2]; [5]
  EC50: 30 nM

## COc1ccc2c(c1)CC(C(=O)N1CC34CNCC3(CN(C)C4)C1)Cn1c-2c(C2CCCCC2)c2ccc(C(=O)NS(=O)(=O)C3CC3)cc21 (centres unmarked)
[1]; Table 1
  IC50: 1.9 to 500 nM
[2]; [3]
  EC50: 500 to 1000 nM

## COc1ccc2c(c1)[C@@H]1C[C@]1(C(=O)N1CC34COCC3(C1)N(C(C)=O)C4)Cn1c-2c(C2CCCCC2)c2ccc(C(=O)NS(=O)(=O)C(C)C)cc21 (some centres unmarked) [drawing 73]
[1]; Table 1
  IC50: 1.9 to 500 nM
[2]; [3]
  EC50: 1.9 to 500 nM

## COc1ccc2c(c1)[C@@H]1C[C@]1(C(=O)N1CC34CNCC3(COC4)C1)Cn1c-2c(C2CCCCC2)c2ccc(C(=O)NS(=O)(=O)C(C)C)cc21 (some centres unmarked)
[1]; Table 1
  IC50: 1.9 to 500 nM
[2]; [3]
  EC50: 1.9 to 500 nM

## COc1ccc2c(c1)C=C(C(=O)N1CC34COCC3(CN(C)C4)C1)Cn1c-2c(C2CCCCC2)c2ccc(C(=O)NS(=O)(=O)N(C)C)cc21 (centres unmarked)
[1]; Table 1
  IC50: 1.9 to 500 nM
[2]; [3]
  EC50: 1.9 to 500 nM

## CCN1CC23COCC2(C1)CN(C(=O)[C@]12C[C@H]1c1cc(OC)ccc1-c1c(C4CCCCC4)c4ccc(C(=O)NS(=O)(=O)C(C)C)cc4n1C2)C3 (some centres unmarked)
[1]; Table 1
  IC50: 1.9 to 500 nM
[2]; [3]
  EC50: 1.9 to 500 nM
